Assay results reported in PubChem BioAssay AID330 (DTP/NCI, 2004).
Values joined by “and” are separate entries in the source; they are usually repeats but may differ in a detail not shown here. Equal values may be shown once. Toxic doses and inconclusive results are not listed. How the source made its calls: active means survival T/C of 150% or more; inactive means T/C below 125% in these data.

Test system: P388 leukemia ip, CD2F1 mice, survival T/C
Test: NCI In Vivo Anticancer Drug Screen. Data for tumor model P388 Leukemia (intraperitoneal) in CD2F1 (CDF1) mice
Settings: endpoint: median survival time, higher = longer survival
Summary of the method: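 Mice carrying the transplanted tumor received test compound or vehicle. Survival was recorded in each group, and the value is the treated-group measurement divided by that of the vehicle-treated control group.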

[1] = dose: 50.0 mg/kg/injection, schedule: Q01DX009 (ip), vehicle: Klucel (hydroxypropylcellulose) (HPC)
[2] = dose: 100.0 mg/kg/injection, schedule: Q01DX009 (ip), vehicle: Klucel (hydroxypropylcellulose) (HPC)
[3] = dose: 200.0 mg/kg/injection, schedule: Q01DX009 (ip), vehicle: Klucel (hydroxypropylcellulose) (HPC)
[4] = dose: 25.0 mg/kg/injection, schedule: Q01DX009 (ip), vehicle: saline with Tween-80
[5] = dose: 50.0 mg/kg/injection, schedule: Q01DX009 (ip), vehicle: saline with Tween-80
[6] = dose: 25.0 mg/kg/injection, schedule: Q01DX009 (ip), vehicle: distilled water + Tween-80
[7] = dose: 100.0 mg/kg/injection, schedule: Q01DX009 (ip), vehicle: saline with Tween-80
[8] = dose: 50.0 mg/kg/injection, schedule: Q01DX005 (ip), vehicle: Klucel (hydroxypropylcellulose) (HPC)
[9] = dose: 200.0 mg/kg/injection, schedule: Q01DX009 (ip), vehicle: saline with Tween-80

Measured: T/C

CC(C)CC(C)NC(=O)Nc1ccc(Cc2ccc(NC(=O)NC(C)CC(C)C)cc2)cc1 (stereo unspecified)
inactive: [1] 96 % of control | [2] 97 % of control | [3] 93 % of control

COc1ccc(C(=O)CC(=O)C(=O)Nc2ccc(Cl)cc2)cc1
inactive: dose: 50.0 mg/kg/injection, schedule: Q01DX005 (ip), vehicle: saline with Tween-80 103 % of control | dose: 100.0 mg/kg/injection, schedule: Q01DX005 (ip), vehicle: saline with Tween-80 101 % of control | dose: 200.0 mg/kg/injection, schedule: Q01DX005 (ip), vehicle: saline with Tween-80 109 % of control

C=C1C(=O)O[C@@H]2/C=C(/C)C3=CC(=O)[C@@](C)(C[C@@H](OC(=O)C(C)CC)C12)O3 (stereo partly specified)
inactive: dose: 10.0 mg/kg/injection, schedule: Q01DX005 (ip), vehicle: Klucel (hydroxypropylcellulose) (HPC) 100 % of control | dose: 20.0 mg/kg/injection, schedule: Q01DX005 (ip), vehicle: Klucel (hydroxypropylcellulose) (HPC) 102 % of control | dose: 40.0 mg/kg/injection, schedule: Q01DX005 (ip), vehicle: Klucel (hydroxypropylcellulose) (HPC) 114 % of control | dose: 80.0 mg/kg/injection, schedule: Q01DX005 (ip), vehicle: Klucel (hydroxypropylcellulose) (HPC) 108 % of control

NC(=S)c1ccc(N=Cc2ccc(Cl)cc2)cc1
inactive: dose: 50.0 mg/kg/injection, schedule: Q01DX001 (ip), vehicle: Klucel (hydroxypropylcellulose) (HPC) 97 % of control | dose: 100.0 mg/kg/injection, schedule: Q01DX001 (ip), vehicle: Klucel (hydroxypropylcellulose) (HPC) 100 % of control | dose: 200.0 mg/kg/injection, schedule: Q01DX001 (ip), vehicle: Klucel (hydroxypropylcellulose) (HPC) 102 % of control

COc1cc(C(=O)OC2c3ccccc3CCC2N(C)C)cc(OC)c1OC (stereo unspecified)
inactive: [4] 98 % of control | [5] 91 % of control

COc1ccc2c(c1)N(C(=O)CNC(C)(C)C)c1ccccc1S2
inactive: dose: 100.0 mg/kg/injection, schedule: Q04DX002 (ip), vehicle: saline 117 % of control | dose: 200.0 mg/kg/injection, schedule: Q04DX002 (ip), vehicle: saline 99 % of control

COc1ccc(/C=C(\C)[N+](=O)[O-])cc1OC
inactive: dose: 12.5 mg/kg/injection, schedule: Q01DX009 (ip), vehicle: distilled water + Tween-80 100 % of control | [6] 121 % of control | dose: 50.0 mg/kg/injection, schedule: Q01DX009 (ip), vehicle: distilled water + Tween-80 115 % of control | dose: 100.0 mg/kg/injection, schedule: Q01DX009 (ip), vehicle: distilled water + Tween-80 115 % of control

Cc1ccccc1C1=NC2(CCCCC2)N=C1NN
inactive: [1] 104 % of control | [2] 98 % of control | [3] 91 % of control

c1ccc2sc(SCCCCCCCCCCCCSc3nc4ccccc4s3)nc2c1
inactive: dose: 50.0 mg/kg/injection, schedule: Q01DX005 (ip), vehicle: Klucel + Tween-80 98 % of control | dose: 100.0 mg/kg/injection, schedule: Q01DX005 (ip), vehicle: Klucel + Tween-80 94 % of control | dose: 200.0 mg/kg/injection, schedule: Q01DX005 (ip), vehicle: Klucel + Tween-80 96 % of control

O=[N+]([O-])c1ccc(-c2nc(/C=N/N3CCOCC3)cs2)s1
inactive: [4] 110 % of control | [5] 115 % of control | [7] 114 % of control

O=C1NC(=O)N(c2ccc(Cl)c(Cl)c2)C1=O
inactive: [1] 94 % of control | [2] 93 % of control | [3] 94 % of control

c1cc[n+]2cc3cc4c(cc3cc2c1)OCO4
inactive: dose: 3.13 mg/kg/injection, schedule: Q01DX009 (ip), vehicle: distilled water + Tween-80 103 % of control and 107 % of control | dose: 6.25 mg/kg/injection, schedule: Q01DX009 (ip), vehicle: distilled water + Tween-80 119 % of control and 123 % of control | [6] 120 % of control and 94 % of control

CC(C)c1ccc(O)c(=O)cc1
inactive: [4] 99 % of control | [5] 102 % of control | [7] 114 % of control

CC(=O)N(c1ccccc1)C1CCC2(C)C(=CCC3C2CCC2(C)C(C(C)CCCC(C)C)CCC32)C1 (stereo unspecified)
inactive: dose: 100.0 mg/kg/injection, schedule: Q04DX003 (sc), vehicle: steriod suspending solution 100 % of control | dose: 200.0 mg/kg/injection, schedule: Q04DX003 (sc), vehicle: steriod suspending solution 100 % of control | dose: 400.0 mg/kg/injection, schedule: Q04DX003 (sc), vehicle: steriod suspending solution 104 % of control

COC(c1nc(N)no1)c1c(Cl)cccc1Cl (stereo unspecified)
inactive: [8] 97 % of control | dose: 100.0 mg/kg/injection, schedule: Q01DX005 (ip), vehicle: Klucel (hydroxypropylcellulose) (HPC) 91 % of control | dose: 200.0 mg/kg/injection, schedule: Q01DX005 (ip), vehicle: Klucel (hydroxypropylcellulose) (HPC) 92 % of control

COc1ccc(-c2c(C(N)=O)cnc(C)c2C)c(OCc2ccccc2)c1OC
inactive: dose: 0.05 mg/kg/injection, schedule: Q01DX009 (ip), vehicle: water 104 % of control | dose: 0.1 mg/kg/injection, schedule: Q01DX009 (ip), vehicle: water 117 % of control | dose: 0.2 mg/kg/injection, schedule: Q01DX009 (ip), vehicle: water 104 % of control | dose: 0.4 mg/kg/injection, schedule: Q01DX009 (ip), vehicle: water 103 % of control and 117 % of control | dose: 0.8 mg/kg/injection, schedule: Q01DX009 (ip), vehicle: water 106 % of control | dose: 1.6 mg/kg/injection, schedule: Q01DX009 (ip), vehicle: water 106 % of control | dose: 3.2 mg/kg/injection, schedule: Q01DX009 (ip), vehicle: water 109 % of control | dose: 6.25 mg/kg/injection, schedule: Q01DX009 (ip), vehicle: other 98 % of control | dose: 6.4 mg/kg/injection, schedule: Q01DX009 (ip), vehicle: water 109 % of control | dose: 12.5 mg/kg/injection, schedule: Q01DX009 (ip), vehicle: other 101 % of control | dose: 25.0 mg/kg/injection, schedule: Q01DX009 (ip), vehicle: other 103 % of control | dose: 50.0 mg/kg/injection, schedule: Q01DX009 (ip), vehicle: other 105 % of control | dose: 100.0 mg/kg/injection, schedule: Q01DX009 (ip), vehicle: other 105 % of control | dose: 200.0 mg/kg/injection, schedule: Q01DX009 (ip), vehicle: other 104 % of control | dose: 400.0 mg/kg/injection, schedule: Q01DX009 (ip), vehicle: other 107 % of control

CSc1nc(NC2OC(CO)C(O)C(O)C2O)c(Cl)c(=O)[nH]1 (stereo unspecified)
inactive: dose: 60.0 mg/kg/injection, schedule: Q01DX005 (ip), vehicle: saline with Tween-80 97 % of control | dose: 120.0 mg/kg/injection, schedule: Q01DX005 (ip), vehicle: saline with Tween-80 97 % of control | dose: 240.0 mg/kg/injection, schedule: Q01DX005 (ip), vehicle: saline with Tween-80 98 % of control

CN(CCO)C1=C(N2CC2)C(=O)C(N(C)CCO)=C(N2CC2)C1=O
119 % of control and 262 % of control: dose: 1.6 mg/kg/injection, schedule: Q01DX009 (ip), vehicle: saline
active: dose: 0.4 mg/kg/injection, schedule: Q01DX009 (ip), vehicle: saline 175 % of control and 194 % of control | dose: 0.8 mg/kg/injection, schedule: Q01DX009 (ip), vehicle: saline 194 % of control and 245 % of control

Nc1ccccc1-c1cncnc1N
inactive: [7] 98 % of control | [9] 101 % of control | dose: 400.0 mg/kg/injection, schedule: Q01DX009 (ip), vehicle: saline with Tween-80 106 % of control

O=C(O)C(Cc1ccccc1F)NC(=O)C(F)(F)F (stereo unspecified)
inactive: [5] 92 % of control | [7] 94 % of control | [9] 100 % of control

OCCN=Cc1ccccc1O.OCCN=Cc1ccccc1O.[Cu]
inactive: [8] 110 % of control

c1ccc2c(N3CCCCC3)ncnc2c1
inactive: dose: 50.0 mg/kg/injection, schedule: Q01DX005 (ip), vehicle: saline 107 % of control | dose: 100.0 mg/kg/injection, schedule: Q01DX005 (ip), vehicle: saline 100 % of control

O=C(O)c1cnc2cc(F)ccc2c1Nc1ccc2c(c1)OCO2
inactive: dose: 60.0 mg/kg/injection, schedule: Q01DX005 (ip), vehicle: Klucel + Tween-80 97 % of control | dose: 120.0 mg/kg/injection, schedule: Q01DX005 (ip), vehicle: Klucel + Tween-80 94 % of control | dose: 240.0 mg/kg/injection, schedule: Q01DX005 (ip), vehicle: Klucel + Tween-80 89 % of control

CCN(CC)C(=S)SS(C)(=O)=O
inactive: dose: 25.0 mg/kg/injection, schedule: Q04DX003 (ip), vehicle: Klucel (hydroxypropylcellulose) (HPC) 99 % of control | dose: 50.0 mg/kg/injection, schedule: Q04DX003 (ip), vehicle: Klucel (hydroxypropylcellulose) (HPC) 107 % of control | dose: 100.0 mg/kg/injection, schedule: Q04DX003 (ip), vehicle: Klucel (hydroxypropylcellulose) (HPC) 107 % of control
